In PubChem BioAssay (NCI):
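48-hour exposure; five concentrations; linearly interpolated endpoints. Abbreviation: GI50, concentration required for 50% inhibition of growth. At the TGI there is no net growth.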

What was measured:
Assay in all cases: NCI-60 cell line screen, 48 h
[1] = test system: 786-0 renal
[2] = test system: HOP-92 NSCLC
[3] = test system: K-562 leukemia
[4] = test system: LOX IMVI melanoma
[5] = test system: M14 melanoma
[6] = test system: MALME-3M melanoma
[7] = test system: RPMI-8226 leukemia
[8] = test system: RXF 393 renal
[9] = test system: SF-295 CNS
[10] = test system: SF-539 CNS
[11] = test system: SK-MEL-2 melanoma
[12] = test system: SK-MEL-28 melanoma
[13] = test system: SK-MEL-5 melanoma
[14] = test system: TK-10 renal
[15] = test system: U251 CNS
[16] = test system: UACC-257 melanoma
[17] = test system: UO-31 renal
[18] = test system: A498 renal
[19] = test system: A549 NSCLC
[20] = test system: ACHN renal
[21] = test system: CAKI-1 renal
[22] = test system: CCRF-CEM leukemia
[23] = test system: COLO 205 colon
[24] = test system: DU-145 prostate
[25] = test system: EKVX NSCLC
[26] = test system: HCC-2998 colon
[27] = test system: HCT-116 colon
[28] = test system: HCT-15 colon
[29] = test system: HL-60(TB) leukemia
[30] = test system: HOP-62 NSCLC
[31] = test system: HS 578T breast
[32] = test system: HT29 colon
[33] = test system: IGROV1 ovarian
[34] = test system: KM12 colon
[35] = test system: MCF7 breast
[36] = test system: MDA-MB-231 breast
[37] = test system: MDA-MB-435
[38] = test system: MOLT-4 leukemia
[39] = test system: NCI-H226 lung
[40] = test system: NCI-H23 lung
[41] = test system: NCI-H460 lung
[42] = test system: NCI-H522 lung
[43] = test system: NCI/ADR-RES ovarian
[44] = test system: OVCAR-3 ovarian
[45] = test system: OVCAR-4 ovarian
[46] = test system: OVCAR-5 ovarian
[47] = test system: OVCAR-8 ovarian
[48] = test system: PC-3 prostate
[49] = test system: SF-268 CNS
[50] = test system: SK-OV-3 ovarian
[51] = test system: SN12C renal
[52] = test system: SNB-19 CNS
[53] = test system: SNB-75 CNS
[54] = test system: SW-620 colon
[55] = test system: T-47D breast
[56] = test system: UACC-62 melanoma
[57] = test system: BT-549 breast
[58] = test system: SR leukemia

Structure (SMILES): O=C(Nc1ccc2cc3ccc(NC(=O)N4CCCCCC4)cc3nc2c1)N1CCCCCC1
- GI50 [1]: 0.344 µM
- TGI [1]: 1.28 µM
- GI50 [2]: 1.57 µM
- TGI [2]: 3.28 µM
- GI50 [3]: 0.35 µM
- TGI [3]: 1.23 µM
- GI50 [4]: 1.42 µM
- TGI [4]: 2.75 µM
- GI50 [5]: 1.32 µM
- TGI [5]: 2.78 µM
- GI50 [6]: 1.13 µM
- TGI [6]: 2.53 µM
- GI50 [7]: 0.315 µM
- TGI [7]: 1.02 µM
- GI50 [8]: 0.219 µM
- TGI [8]: 0.505 µM
- GI50 [9]: 0.783 µM
- TGI [9]: 2.12 µM
- GI50 [10]: 0.841 µM
- TGI [10]: 2.09 µM
- GI50 [11]: 1.62 µM
- TGI [11]: 3.14 µM
- GI50 [12]: 1.32 µM
- TGI [12]: 2.67 µM
- GI50 [13]: 1.48 µM
- TGI [13]: 2.81 µM
- GI50 [14]: 1.92 µM
- TGI [14]: 3.46 µM
- GI50 [15]: 0.534 µM
- TGI [15]: 1.81 µM
- GI50 [16]: 1.81 µM
- TGI [16]: 3.36 µM
- GI50 [17]: 1.66 µM
- TGI [17]: 3.04 µM

Structure (SMILES): CCc1cccc(C(C)C)c1NC1=C([n+]2ccc(C)cc2)C(=O)c2ccccc2C1=O
- TGI [1]: 12.1 µM
- TGI [18]: 8.79 µM
- TGI [19]: 22.5 µM
- TGI [20]: 1.68 µM
- TGI [21]: 5.41 µM
- TGI [22]: 4 µM
- TGI [23]: 2.57 µM
- TGI [24]: 3.92 µM
- TGI [25]: 5.16 µM
- TGI [26]: 20.9 µM
- TGI [27]: > 100 µM
- TGI [28]: 13.9 µM
- TGI [29]: 9.29 µM
- TGI [30]: 9.62 µM
- TGI [2]: 7.06 µM
- TGI [31]: > 100 µM
- TGI [32]: 7.75 µM
- TGI [33]: 8.18 µM
- TGI [3]: 20.3 µM
- TGI [34]: > 43.4 µM
- TGI [4]: 3.39 µM
- TGI [5]: 3.16 µM
- TGI [6]: 6.91 µM
- TGI [35]: 1.3 µM
- TGI [36]: > 34.7 µM
- TGI [37]: 3.12 µM
- TGI [38]: 9.43 µM
- TGI [39]: 8.76 µM
- TGI [40]: > 100 µM
- TGI [41]: 4.09 µM
- TGI [42]: 15.8 µM
- TGI [43]: 37.8 µM
- TGI [44]: 2.31 µM
- TGI [45]: 10.9 µM
- TGI [46]: 23.2 µM
- TGI [47]: 4.79 µM
- TGI [48]: 8.91 µM
- TGI [7]: 2.71 µM
- TGI [8]: 4.28 µM
- TGI [49]: 5.8 µM
- TGI [9]: 18.1 µM
- TGI [10]: 4.27 µM
- TGI [11]: 28.9 µM
- TGI [12]: 20.8 µM
- TGI [13]: 4.66 µM
- TGI [50]: 19.7 µM
- TGI [51]: 8.35 µM
- TGI [52]: > 100 µM
- TGI [53]: 7.32 µM
- TGI [54]: > 100 µM
- TGI [55]: 2.24 µM
- TGI [14]: 29.1 µM
- TGI [15]: 12.1 µM
- TGI [16]: 4.45 µM
- TGI [56]: 4.22 µM
- TGI [17]: 10 µM

Structure (SMILES): CCN(CC)CCNC(=O)c1cc(Cl)c(N)cc1OC
- GI50 [18]: 11.1 µM
- TGI [18]: 40.1 µM
- GI50 [57]: 82.3 µM
- GI50 [32]: 20.8 µM
- TGI [32]: 38.7 µM
- GI50 [3]: 56.5 µM
- GI50 [41]: 23.5 µM
- TGI [41]: 45.8 µM
- GI50 [47]: 28.4 µM
- TGI [47]: 46.2 µM
- GI50 [9]: 25.3 µM
- TGI [9]: 44.2 µM
- GI50 [13]: 99.6 µM
- GI50 [53]: 50.2 µM
- GI50 [16]: 13.9 µM
- TGI [16]: 19.4 µM
- GI50 [17]: 99.1 µM

Structure (SMILES): C=CC(=O)N1CC2(CC(n3nc(-c4ccc(Oc5ccccc5)cc4)c4c(N)ncnc43)C2)C1
- GI50 [57]: 1.4 µM
- TGI [57]: > 100 µM
- GI50 [21]: 1.04 µM
- TGI [21]: > 100 µM
- GI50 [23]: 1.46 µM
- TGI [23]: > 100 µM
- GI50 [26]: > 100 µM
- TGI [26]: > 100 µM
- GI50 [3]: 1.19 µM
- TGI [3]: > 100 µM
- GI50 [5]: 2.23 µM
- TGI [5]: > 100 µM
- GI50 [40]: > 100 µM
- TGI [40]: > 100 µM
- GI50 [41]: > 100 µM
- TGI [41]: > 100 µM
- GI50 [49]: 1.43 µM
- TGI [49]: > 100 µM
- GI50 [9]: > 100 µM
- TGI [9]: > 100 µM
- GI50 [51]: 0.78 µM
- TGI [51]: > 100 µM
- GI50 [58]: 6.45 µM
- TGI [58]: > 100 µM
- GI50 [54]: > 100 µM
- TGI [54]: > 100 µM
- GI50 [16]: 1.97 µM
- TGI [16]: > 100 µM
- GI50 [56]: 1.72 µM
- TGI [56]: > 100 µM
